Measurements published in ChEMBL document CHEMBL2177026, “Acyl guanidine inhibitors of β-secretase (BACE-1): optimization of a micromolar hit to a nanomolar lead via iterative solid- and solution-phase library synthesis” (J Med Chem, 2012).

Tests used:
Beta-secretase 1 [1] = molecular target: T1, Beta-secretase 1 (Homo sapiens, UniProt P56817); experiment: Displacement of [3H]BMS-599240 from BACE1 expressed in HEK293 cells; assay type: cell-based
Beta-secretase 1 [2] = molecular target: T1, Beta-secretase 1; experiment: Inhibition of BACE1 in human HEK293 cells expressing APP 695 Swedish mutant assessed as inhibition of amyloid beta (1 to 40) production after overnight incubation by ELISA; assay type: cell-based

T1 sequence (P56817 whole entry): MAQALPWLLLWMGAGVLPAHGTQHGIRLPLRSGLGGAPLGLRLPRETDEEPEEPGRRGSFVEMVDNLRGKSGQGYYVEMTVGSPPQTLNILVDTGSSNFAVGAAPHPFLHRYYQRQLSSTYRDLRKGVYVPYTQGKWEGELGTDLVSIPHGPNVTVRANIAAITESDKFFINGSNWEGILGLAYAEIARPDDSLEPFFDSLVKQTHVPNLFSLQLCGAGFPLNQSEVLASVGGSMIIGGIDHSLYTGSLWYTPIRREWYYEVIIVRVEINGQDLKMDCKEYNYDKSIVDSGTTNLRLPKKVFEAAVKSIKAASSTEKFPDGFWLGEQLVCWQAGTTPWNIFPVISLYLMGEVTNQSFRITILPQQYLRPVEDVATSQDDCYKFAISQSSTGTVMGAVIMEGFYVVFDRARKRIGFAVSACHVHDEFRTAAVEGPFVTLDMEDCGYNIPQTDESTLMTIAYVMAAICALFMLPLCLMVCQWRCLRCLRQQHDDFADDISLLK

| Compound | Ki (Beta-secretase 1 [1]) [µM] | IC50 (Beta-secretase 1 [2]) [µM] |
| --- | --- | --- |
| Cc1onc(-c2ccccc2)c1C(=O)/N=C(\N)NCc1ccccc1 | > 10 | – |
| COc1ccc(-c2noc(C)c2C(=O)/N=C(\N)NCc2cccc3ccccc23)cc1 | 1.7 | – |
| Cc1onc(-c2ccc(F)cc2)c1C(=O)/N=C(\N)NCc1cccc2ccccc12 | 1.8 | – |
| COc1ccc(-c2c(C(=O)/N=C(\N)NCc3cc(Cl)cc(Cl)c3)c(C)nn2C)cc1 | 4 | – |
| COc1ccc(-c2nsc(C)c2C(=O)/N=C(\N)NCc2ccc3ccccc3c2)cc1 | 0.87 | – |
| CCCOc1c(Cl)cc(CN=C(N)NC(=O)c2c(-c3ccc(OC)cc3)noc2C)cc1Cl | > 5 | – |
| Cc1onc(-c2ccccc2)c1C(=O)/N=C(\N)NCc1cc(Cl)cc(Cl)c1 | 3.9 | – |
| Cc1onc(-c2ccc(F)cc2)c1C(=O)NC(N)=NCc1ccccc1 | > 10 | – |
| COc1ccc(-c2noc(C)c2C(=O)NC(N)=NCc2cc(Cl)cc(-c3ccsc3)c2)cc1 | 1.2 | – |
| COc1ccc(-c2noc(C)c2C(=O)/N=C(\N)NCc2ccccc2)cc1 | 4 | – |
| Cc1onc(-c2ccc(F)cc2)c1C(=O)/N=C(\N)NCc1ccc(Cl)c(Cl)c1 | 2.4 | – |
| Cc1onc(-c2ccccc2)c1C(=O)NC(N)=NCc1cccc2ccccc12 | 3.9 | – |
| Cc1onc(-c2ccc(F)cc2)c1C(=O)NC(N)=NCc1cc(Cl)cc(Cl)c1 | 2.2 | – |
| Cc1onc(-c2ccccc2)c1C(=O)NC(N)=NCc1ccc(Cl)c(Cl)c1 | 8.8 | – |
| COc1ccc(-c2noc(C)c2C(=O)/N=C(\N)NCc2cc(Cl)cc(-c3cccnc3)c2)cc1 | 1.8 | – |
| COc1ccc(-c2noc(C)c2C(=O)NC(N)=NCc2ccc(Cl)c(Cl)c2)cc1 | 0.91 | – |

Next, values leading:

| Ki (Beta-secretase 1 [1]) [µM] | IC50 (Beta-secretase 1 [2]) [µM] | Compound |
| --- | --- | --- |
| 0.28 | – | COc1ccc(-c2nsc(C)c2C(=O)/N=C(\N)NCc2cc(Cl)c(NS(C)(=O)=O)c(Cl)c2)cc1 |
| 0.02 | 0.02 | COc1ccc(-c2nsc(C)c2C(=O)NC(N)=NCc2cc(C)c(NC(=O)CN(C)C)c(Cl)c2)cc1 |
| 0.12 | – | COc1ccc(-c2noc(C)c2C(=O)NC(N)=NCc2cc(Cl)c(N)c(Cl)c2)cc1 |
| 0.14 | – | COc1ccc(-c2noc(C)c2C(=O)/N=C(\N)NCc2cc(Cl)cc(/C=C/CCO)c2)cc1 |
| 0.85 | – | CCC/C=C/c1cc(Cl)cc(CN=C(N)NC(=O)c2c(-c3ccc(OC)cc3)noc2C)c1 |
| 0.21 | – | COc1ccc(-c2[nH]nc(C)c2C(=O)/N=C(\N)NCc2cc(Cl)cc(Cl)c2)cc1 |
| 0.86 | – | COc1ccc(-c2onc(C)c2C(=O)/N=C(\N)NCc2cc(Cl)cc(Cl)c2)cc1 |
| 0.01 | 0.07 | COc1ccc(-c2nsc(C)c2C(=O)NC(N)=NCc2cc(C)c(NC(=O)CNCc3ccccc3)c(Cl)c2)cc1 |
| 0.03 | 0.64 | COc1ccc(-c2noc(C)c2C(=O)NC(N)=NCc2cc(C)c(NC(=O)CCSC)c(Cl)c2)cc1 |
| 0.48 | – | COc1ccc(-c2noc(C)c2C(=O)/N=C(\N)NCc2cc(Cl)c(O)c(Cl)c2)cc1 |
| 0.01 | 0.79 | COc1ccc(-c2noc(C)c2C(=O)/N=C(\N)NCc2cc(Cl)c(NC(C)=O)c(Cl)c2)cc1 |
| 0.05 | 2 | COc1ccc(-c2noc(C)c2C(=O)NC(N)=NCc2cc(Cl)c(NC(=O)CSC)c(Cl)c2)cc1 |
| 0.15 | – | COC/C=C/c1cc(Cl)cc(CN/C(N)=N/C(=O)c2c(-c3ccc(OC)cc3)noc2C)c1 |
| 0.02 | 0.24 | COc1ccc(-c2nsc(C)c2C(=O)NC(N)=NCc2cc(C)c(NC(C)=O)c(Cl)c2)cc1 |
| 0.28 | – | COc1ccc(-c2noc(C)c2C(=O)/N=C(\N)NCc2cc(C)cc(C)c2)cc1 |
| 0.29 | > 5 | COc1ccc(-c2nsc(C)c2C(=O)/N=C(\N)NCc2cc(Cl)cc(Cl)c2)cc1 |
| 0.04 | 0.78 | CCC(=O)Nc1c(C)cc(CN=C(N)NC(=O)c2c(-c3ccc(OC)cc3)noc2C)cc1Cl |
| 0.5 | – | COc1ccc(-c2nsc(C)c2C(=O)/N=C(\N)NCc2cccc3ccccc23)cc1 |
| 0.43 | – | C=Cc1cc(Cl)cc(CN/C(N)=N/C(=O)c2c(-c3ccc(OC)cc3)noc2C)c1 |
| 0.51 | – | COc1ccc(-c2noc(C)c2C(=O)/N=C(\N)NCc2cc(Cl)cc(Br)c2)cc1 |
